From patent publication US5980913A, “Peptides having immunomodulatory activity” (Biochem Pharma, Inc., priority 1994, dated 1999)
Where a SMILES comes first, the peptide text is derived from it. [ ]: non-standard residue; d: D form.

System: spleen cell subsets (cell surface antigens)
Experiment: In vivo/ex vivo immunophenotyping in the spleen, mice treated 4 consecutive days
Set-up: species or system C57BL/6 mice
Method: C57BL.backslash.6 mice are treated with 0, 50, 100, 200, and 300 mg/kg of drug (in saline) for 4 consecutive days. Blood is taken by cardiac puncture on day 5, and the lymphocytes are isolated from spleen in the following manner:
The spleen is aseptically removed and mashed by pressing against a steel strainer with a rubber plunger. The cell suspension is separated from the clumps by letting them settle at the bottom of the tube. The cell suspension is then separated on a Lymphocyte M layer and the interface is recovered and resuspended in media.
1. Immunophenotyping (blood and spleen)
Cell immunophenotyping is performed on blood and spleen. The following cell surface antigens are analyzed:
CD4 (T helper/inducer, binds class II-restricted T cells);
CD8 (cytotoxic T cells, CTL adhesion);
MAC-1 (monocyte/macrophage);
NK (natural killer cells);
CD45 (all leukocytes, protein tyrosine phosphatase).

SMILES: NCCCC[C@@H](N)C(=O)N[C@@H](CC(N)=O)C(=O)N1CCC[C@H]1C(=O)N[C@@H](Cc1ccc(O)cc1)C(=O)O [PEPTIDE #5, H-(D-Lys)-Asn-Pro-Tyr-OH] (H-[dK]NPY-OH)
- CD4+ CD8+ cell subset, relative percentage, MEAN (50 mg/kg, first assay): 0.58
- CD4+ CD8- cell subset, relative percentage, MEAN (50 mg/kg, first assay): 33.05
- CD4+ CD11b+ cell subset, relative percentage, MEAN (50 mg/kg, first assay): 0.83
- CD4+ CD11b- cell subset, relative percentage, MEAN (50 mg/kg, first assay): 23.88
- CD4- CD8+ cell subset, relative percentage, MEAN (50 mg/kg, first assay): 5.73
- CD4- CD8- cell subset, relative percentage, MEAN (50 mg/kg, first assay): 60.65
- CD4- CD11b+ cell subset, relative percentage, MEAN (50 mg/kg, first assay): 3.63
- CD4- CD11b- cell subset, relative percentage, MEAN (50 mg/kg, first assay): 71.73
- CD45+ CD4+ cell subset, relative percentage, MEAN (50 mg/kg, first assay): 21.43
- CD45+ CD4- cell subset, relative percentage, MEAN (50 mg/kg, first assay): 55.25
- CD45+ CD8+ cell subset, relative percentage, MEAN (50 mg/kg, first assay): 5.38
- CD45+ CD8- cell subset, relative percentage, MEAN (50 mg/kg, first assay): 66.00
- CD45- CD4+ cell subset, relative percentage, MEAN (50 mg/kg, first assay): 13.28
- CD45- CD4- cell subset, relative percentage, MEAN (50 mg/kg, first assay): 10.03
- CD45- CD8+ cell subset, relative percentage, MEAN (50 mg/kg, first assay): 0.63
- CD45- CD8- cell subset, relative percentage, MEAN (50 mg/kg, first assay): 28.05
- Ly5(B) cell subset, relative percentage, MEAN (50 mg/kg, first assay): 57.85
- NK+ CD3+ cell subset, relative percentage, MEAN (50 mg/kg, first assay): 1.50
- NK+ CD3- cell subset, relative percentage, MEAN (50 mg/kg, first assay): 3.78
- NK- CD3+ cell subset, relative percentage, MEAN (50 mg/kg, first assay): 38.13
- NK- CD3- cell subset, relative percentage, MEAN (50 mg/kg, first assay): 56.68
- TCR(T) cell subset, relative percentage, MEAN (50 mg/kg, first assay): 40.23
- CD4+ CD8+ cell subset, relative percentage, MEAN (50 mg/kg, second assay): 0.63
- CD4+ CD8- cell subset, relative percentage, MEAN (50 mg/kg, second assay): 36.53
- CD4+ CD11b+ cell subset, relative percentage, MEAN (50 mg/kg, second assay): 0.38
- CD4+ CD11b- cell subset, relative percentage, MEAN (50 mg/kg, second assay): 14.85
- CD4- CD8+ cell subset, relative percentage, MEAN (50 mg/kg, second assay): 5.85
- CD4- CD8- cell subset, relative percentage, MEAN (50 mg/kg, second assay): 57.03
- CD4- CD11b+ cell subset, relative percentage, MEAN (50 mg/kg, second assay): 3.60
- CD4- CD11b- cell subset, relative percentage, MEAN (50 mg/kg, second assay): 81.15
- CD45+ CD4+ cell subset, relative percentage, MEAN (50 mg/kg, second assay): 29.23
- CD45+ CD4- cell subset, relative percentage, MEAN (50 mg/kg, second assay): 49.85
- CD45+ CD8+ cell subset, relative percentage, MEAN (50 mg/kg, second assay): 6.03
- CD45+ CD8- cell subset, relative percentage, MEAN (50 mg/kg, second assay): 75.15
- CD45- CD4+ cell subset, relative percentage, MEAN (50 mg/kg, second assay): 8.83
- CD45- CD4- cell subset, relative percentage, MEAN (50 mg/kg, second assay): 12.05
- CD45- CD8+ cell subset, relative percentage, MEAN (50 mg/kg, second assay): 0.18
- CD45- CD8- cell subset, relative percentage, MEAN (50 mg/kg, second assay): 18.65
- Ly5(B) cell subset, relative percentage, MEAN (50 mg/kg, second assay): 41.20
- NK+ CD3+ cell subset, relative percentage, MEAN (50 mg/kg, second assay): 2.18
- NK+ CD3- cell subset, relative percentage, MEAN (50 mg/kg, second assay): 3.83
- NK- CD3+ cell subset, relative percentage, MEAN (50 mg/kg, second assay): 39.60
- NK- CD3- cell subset, relative percentage, MEAN (50 mg/kg, second assay): 54.38
- TCR(T) cell subset, relative percentage, MEAN (50 mg/kg, second assay): 51.58
- CD4+ CD8+ cell subset, relative percentage, MEAN (100 mg/kg, first assay): 0.70
- CD4+ CD8- cell subset, relative percentage, MEAN (100 mg/kg, first assay): 36.85
- CD4+ CD11b+ cell subset, relative percentage, MEAN (100 mg/kg, first assay): 0.95
- CD4+ CD11b- cell subset, relative percentage, MEAN (100 mg/kg, first assay): 23.73
- CD4- CD8+ cell subset, relative percentage, MEAN (100 mg/kg, first assay): 7.03
- CD4- CD8- cell subset, relative percentage, MEAN (100 mg/kg, first assay): 55.50
- CD4- CD11b+ cell subset, relative percentage, MEAN (100 mg/kg, first assay): 4.10
- CD4- CD11b- cell subset, relative percentage, MEAN (100 mg/kg, first assay): 71.23
- CD45+ CD4+ cell subset, relative percentage, MEAN (100 mg/kg, first assay): 23.25
- CD45+ CD4- cell subset, relative percentage, MEAN (100 mg/kg, first assay): 52.10
- CD45+ CD8+ cell subset, relative percentage, MEAN (100 mg/kg, first assay): 6.43
- CD45+ CD8- cell subset, relative percentage, MEAN (100 mg/kg, first assay): 63.43
- CD45- CD4+ cell subset, relative percentage, MEAN (100 mg/kg, first assay): 15.35
- CD45- CD4- cell subset, relative percentage, MEAN (100 mg/kg, first assay): 9.30
- CD45- CD8+ cell subset, relative percentage, MEAN (100 mg/kg, first assay): 0.83
- CD45- CD8- cell subset, relative percentage, MEAN (100 mg/kg, first assay): 29.30
- Ly5(B) cell subset, relative percentage, MEAN (100 mg/kg, first assay): 56.75
- NK+ CD3+ cell subset, relative percentage, MEAN (100 mg/kg, first assay): 1.83
- NK+ CD3- cell subset, relative percentage, MEAN (100 mg/kg, first assay): 3.88
- NK- CD3+ cell subset, relative percentage, MEAN (100 mg/kg, first assay): 38.38
- NK- CD3- cell subset, relative percentage, MEAN (100 mg/kg, first assay): 55.95
- TCR(T) cell subset, relative percentage, MEAN (100 mg/kg, first assay): 39.83
- CD4+ CD8+ cell subset, relative percentage, MEAN (100 mg/kg, second assay): 0.53
